Laboratory results published in US20250222003A1, “PHARMACEUTICAL COMPOSITION FOR TREATING SOLID TUMORS” (Eisai R&D Management Co., Ltd., priority 2021, published 2025).

System: patients with a solid tumor
Test: Suppression of nausea or vomiting associated with administration of Compound A by antiemetics
Format: in vivo, human
Details: for number of subjects in which vomiting could not be suppressed: Compound A 160 mg BID; for number of subjects in which vomiting could not be suppressed / number of subjects in which vomiting could be suppressed / number of subjects showing improvement after switch from non-5-HT3 antiemetic to the 5-HT3 receptor antagonist: ramosetron or granisetron; for number of subjects in which vomiting could be suppressed / number of subjects showing improvement after switch from non-5-HT3 antiemetic to the 5-HT3 receptor antagonist / number of subjects that did not show improvement of vomiting after the antiemetic: of 20 subjects; for number of subjects showing improvement of vomiting by the antiemetic: of 20 subjects complaining of vomiting during Cycle 1, prochlorperazine or metoclopramide; for number of subjects that did not show improvement of vomiting after the antiemetic: domperidone, metoclopramide or prochlorperazine
Excerpt: For subjects of administration that had the gastrointestinal symptoms, nausea or vomiting, the results of administration of various antiemetics were investigated to determine whether they could suppress the occurrence of nausea or vomiting. The antiemetics used were domperidone ([…], Nauzelin tablet), metoclopramide (peripheral D2 receptor antagonist, metoclopramide tablet), ramosetron hydrochloride (5-HT3 receptor antagonist, Nasea tablet), granisetron (5-HT3 receptor antagonist (Kytril tablet), and the like.
The antiemetics were timely administered to 20 subjects of administration that complained of vomiting during Cycle 1.
FIGS. 1 and 2 are graphs showing the relationship between Cmax(Cmax,ss) or AUC (AUC(0-tau),ss) and the vomiting flag for each test subject at the time of CID8. For example, the vomiting flag 3 means a case in which treatment with an antiemetic other than the 5-HT3 receptor antagonist was first attempted but vomiting could not be suppressed, and vomiting could be suppressed when the antiemetic was switched to the 5-HT3 receptor antagonist.
Five additional patients were investigated whether the occurrence of nausea or vomiting, which is an adverse event having a causal relationship with Compound A, could be suppressed. Ramosetron hydrochloride or granisetron hydrochloride (5-HT3 receptor antagonist) was administered to four patients of administration that complained of vomiting during Cycle 1. Of the four patients that complained of vomiting, three patients received granisetron hydrochloride to prevent the gastrointestinal symptoms (nausea, vomiting) associated with administration of Compound A.

SMILES	number of subjects in which vomiting could not be suppressed	number of test subjects in which vomiting could be suppressed when given after symptoms of nausea or vomiting (additional patients, Compound A 120 mg BID)	vomiting after prophylactic administration (additional patients, Compound A 120 mg BID, three patients)	number of subjects in which vomiting could be suppressed	number of subjects showing improvement after switch from non-5-HT3 antiemetic to the 5-HT3 receptor antagonist	number of subjects in which vomiting could be prevented when given at onset of nausea (of the twelve subjects)	number of subjects showing improvement of vomiting by the antiemetic	number of subjects that did not show improvement of vomiting after the antiemetic
CN1[C@@H]2CCC[C@H]1C[C@@H](NC(=O)c1nn(C)c3ccccc13)C2.Cl [granisetron, 1-methyl-N-(endo-9-methyl-9-azabicyclo[3.3.1]non-3-yl)-1H-indazole-3-carboxamide hydrochloride]	two	one	no vomiting occurred afterwards	twelve	four	two		
Cl.Cn1cc(C(=O)[C@@H]2CCc3[nH]cnc3C2)c2ccccc21 [ramosetron, (−)-(R)-5-[(1-methyl-1H-indol-3-yl)carbonyl]-4,5,6,7-tetrahydro-1H-benzimidazole monohydrochloride]	two			twelve	four			
CCN(CC)CCNC(=O)c1cc(Cl)c(N)cc1OC [metoclopramide]							Two	four
O=c1[nH]c2ccccc2n1CCCN1CCC(n2c(=O)[nH]c3cc(Cl)ccc32)CC1 [domperidone]								four
CN1CCN(CCCN2c3ccccc3Sc3ccc(Cl)cc32)CC1 [prochlorperazine]							Two	four
